Literature values in US12133918B2, “Partially pre-gelatinized cassava starch as pharmaceutical excipient” (Griffin Gamma, LLC, priority 2021, dated 2024).

Settings: literature and experimental data

| Structure (SMILES) | BCS class | permeability (BCS) | solubility (BCS) |
| --- | --- | --- | --- |
| CC(=O)Oc1ccccc1C(=O)O [Acetylsalicylic acid, acetylsalicylic acid] | Class I | highly permeable | highly soluble |
| COc1ccccc1OCC(O)CO (centres unmarked) [Guaifenesin, 3-(2-methoxyphenoxy)-1,2-propanediol] |  | highly permeable | highly soluble |
